The values below come from EPA's ToxRefDB 2.

Series [1] concerns mouse. Conditions: Carcinogenicity, b6c3f1, Dermal, Topical, dose end: 2 year, group: systemic.
The subject of series [2] is mouse. To be noted: Prenatal developmental toxicity study, cd1, Injection, Intravenous, dose end: 12 GD.
In series [3] the test system is rat. To be noted: Subchronic oral toxicity in rodents, fischer, Dermal, Topical, dose end: 13 week, group: systemic.
The test system of series [4] is rat. To be noted: Combined chronic toxicity/carcinogenicity; fischer; Dermal; Topical; dose end: 2 year; group: systemic; systemic / pathology microscopic / pituitary gland / adenoma.
In series [5] the test system is mouse. Conditions: Combined chronic toxicity/carcinogenicity, b6c3f1, Oral, Gavage/Intubation, dose end: 2 year, group: systemic.
Series [6] relates to rat. Conditions: Combined chronic toxicity/carcinogenicity; fischer; Oral; Gavage/Intubation; dose end: 2 year; group: systemic; systemic / in life observation / body weight / body weight.
Series [7] relates to mouse. To be noted: Subchronic oral toxicity in rodents, b6c3f1, Gavage/Intubation, dose end: 13 week, group: systemic.
Series [8] deals with rat. Conditions: Subchronic oral toxicity in rodents, fischer, Gavage/Intubation, dose end: 13 week, group: systemic.
Series [9] deals with rat. To be noted: Prenatal developmental toxicity study, sprague dawley, Oral, Gavage/Intubation, dose end: 15 GD.
In series [10] the test system is rat. To be noted: Subchronic dermal toxicity, sprague dawley, Topical, dose end: 91 day, group: systemic, systemic / in life observation / clinical signs / erythema + systemic / in life observation / clinical signs / scabbing + systemic / in life….
The test system of series [11] is rat. To be noted: Prenatal developmental toxicity study, other, Oral, Gavage/Intubation, dose end: 15 GD.
The test system of series [12] is mouse. To be noted: Subchronic oral toxicity in rodents, b6c3f1, Gavage/Intubation, dose end: 13 week, group: systemic, systemic / in life observation / clinical signs / fur (altered appearance) + systemic / in life observation / clinical signs / reduced ….
Series [13] has as its system rat. To be noted: Subchronic oral toxicity in rodents, fischer, Gavage/Intubation, dose end: 13 week, group: systemic. This is another data set of the same source.
Series [14] has as its system mouse. To be noted: Combined chronic toxicity/carcinogenicity, b6c3f1, Oral, Gavage/Intubation, dose end: 103 week, group: systemic.
In series [15] the test system is rat. To be noted: Combined chronic toxicity/carcinogenicity, fischer, Oral, Gavage/Intubation, dose end: 103 week, group: systemic.
The subject of series [16] is mouse. To be noted: Carcinogenicity; b6c3f1; Oral; Feed; dose end: 103 week; group: systemic; systemic / pathology microscopic / kidney / vacuolization.
Series [17] has as its system rat. To be noted: Subchronic oral toxicity in rodents, fischer, Feed, dose end: 13 week, group: systemic, systemic / in life observation / body weight / body weight gain.
The test system of series [18] is rat. Conditions: Carcinogenicity, fischer, Oral, Feed, dose end: 103 week, group: systemic.
Series [19] has as its system mouse. Conditions: Subchronic oral toxicity in rodents, b6c3f1, Feed, dose end: 13 week, group: systemic, systemic / in life observation / body weight / body weight gain.
For series [20], the system named is mouse. To be noted: Carcinogenicity; b6c3f1; Oral; Feed; dose end: 108 week; group: systemic; systemic / in life observation / body weight / body weight.
For series [21], the system named is rat. To be noted: Carcinogenicity; fischer; Oral; Feed; dose end: 107 week; group: systemic; systemic / in life observation / body weight / body weight.
The subject of series [22] is mouse. Conditions: Subchronic oral toxicity in rodents, b6c3f1, Feed, dose end: 7 week, group: systemic, systemic / in life observation / body weight / body weight.
The test system of series [23] is rat. To be noted: Subchronic oral toxicity in rodents, fischer, Feed, dose end: 7 week, group: systemic, systemic / in life observation / body weight / body weight.
Setting [24] is: systemic / in life observation / body weight / body weight + systemic / in life observation / mortality / mortality.
Setting [25] is: group: developmental, developmental / developmental malformation / general / [other] + systemic / in life observation / body weight / fetal weight.
The mark [26] stands for this setting: group: developmental, systemic / in life observation / body weight / fetal weight.
The mark [27] stands for this setting: group: maternal, reproductive / reproductive performance / resorptions / resorptions + systemic / in life observation / body weight / body weight gain + ….
Where [28] appears, read: systemic / pathology microscopic / lung / congestion + systemic / pathology microscopic / pancreas / vacuolization + systemic / in life ….
[29] abbreviates: systemic / in life observation / body weight / body weight + systemic / pathology microscopic / kidney / nephropathy.
Setting [30] is: systemic / in life observation / body weight / body weight + systemic / pathology microscopic / kidney / nephropathy + systemic / pathology ….
The mark [31] stands for this setting: systemic / pathology microscopic / kidney / nephropathy.
Where [32] appears, read: systemic / in life observation / body weight / body weight.
Where [33] appears, read: systemic / in life observation / body weight / body weight + systemic / in life observation / clinical signs / alopecia + systemic / in life….
Setting [34] is: group: maternal, systemic / in life observation / body weight / body weight.
The mark [35] stands for this setting: group: maternal, systemic / in life observation / body weight / body weight + systemic / in life observation / clinical signs / body surface staining + ….
Where [36] appears, read: group: developmental, developmental / developmental malformation / bone / ossification sites + developmental / developmental malformation / bone / full ….
Setting [37] is: group: maternal, systemic / in life observation / body weight / body weight + systemic / in life observation / food consumption / food consumption + systemic….
Setting [38] is: systemic / in life observation / body weight / body weight + systemic / in life observation / clinical signs / fur (altered appearance) + ….
The mark [39] stands for this setting: systemic / pathology microscopic / kidney / casts + systemic / pathology microscopic / kidney / regeneration.
[40] abbreviates: systemic / pathology microscopic / liver / cytomegaly + systemic / pathology microscopic / liver / multinucleated.
Setting [41] is: systemic / pathology microscopic / kidney / hyperplasia + systemic / pathology microscopic / kidney / mineralization.
The mark [42] stands for this setting: systemic / pathology microscopic / kidney / hyperplasia + systemic / pathology microscopic / kidney / mineralization + systemic / pathology ….
Where [43] appears, read: systemic / in life observation / body weight / body weight gain + systemic / pathology microscopic / eye / cataract + systemic / pathology ….

Regarding `OCCCl` [2-Chloroethanol], the LEL with mouse [1] (setting [24]) was determined as 180 mg/kg/day; in the series with mouse [2] (setting [26]) it was 60 mg/kg/day; with mouse [2] (setting [27]), 120 mg/kg/day; with rat [3] (systemic / pathology microscopic / pancreas / vacuolization + systemic / in life observation / mortality / mortality), 250 mg/kg/day; with rat [4], 100 mg/kg/day. The NEL in the series with mouse [1] (setting [24]) was < 180 mg/kg/day; in the series with mouse [2] (setting [26]) it was < 60 mg/kg/day; with mouse [2] (setting [27]), 60 mg/kg/day; with rat [3] (setting [28]), 125 mg/kg/day; in the series on rat [4] it was 50 mg/kg/day. Moreover, the LOAEL (as a rule, the lowest tested level that showed an adverse finding) was 411 mg/kg/day with mouse [1] (systemic / pathology microscopic / skin / inflammation + systemic / pathology microscopic / skin / ulcer); > 120 mg/kg/day in the series on mouse [2] (setting [25]); > 120 mg/kg/day with mouse [2] (setting [27]); 500 mg/kg/day in the series with rat [3] (systemic / pathology microscopic / lung / congestion + systemic / pathology microscopic / pancreas / vacuolization); > 100 mg/kg/day in the series with rat [4]. Also, the NOAEL (as a rule, the highest dose or exposure tested at which no adverse effect was seen) is 180 mg/kg/day in the series on mouse [1] (systemic / pathology microscopic / skin / inflammation + systemic / pathology microscopic / skin / ulcer + systemic / in life observation / …); ≥ 120 mg/kg/day in the series with mouse [2] (setting [25]); ≥ 120 mg/kg/day in the series on mouse [2] (setting [27]); 250 mg/kg/day in the series on rat [3] (setting [28]); ≥ 100 mg/kg/day with rat [4].

Take `CCCCCCc1ccc(O)cc1O` [4-Hexylresorcinol]: the LOAEL with mouse [5] (setting [29]) was 62.5 mg/kg/day; with rat [6], 125 mg/kg/day; with mouse [7] (setting [31]) it was 250 mg/kg/day; in the series on rat [8] (setting [32]), 125 mg/kg/day. Moreover, the NOAEL in the series on mouse [5] (setting [29]) was < 62.5 mg/kg/day; in the series on rat [6], 62.5 mg/kg/day; in the series on mouse [7] (systemic / pathology microscopic / kidney / nephropathy + systemic / in life observation / mortality / mortality), 125 mg/kg/day; in the series on rat [8] (setting [33]) it was 62.5 mg/kg/day. Besides, the LEL in the series with mouse [5] (setting [30]) was found to be 62.5 mg/kg/day; in the series with rat [6], 125 mg/kg/day; with mouse [7] (setting [31]) it was 125 mg/kg/day; in the series on rat [8] (setting [32]), 125 mg/kg/day. For the same compound, the NEL with mouse [5] (setting [30]) is < 62.5 mg/kg/day; with rat [6] it was 62.5 mg/kg/day; with mouse [7] (systemic / pathology microscopic / kidney / nephropathy + systemic / in life observation / body weight / body weight + systemic / in life …), 62.5 mg/kg/day; in the series on rat [8] (setting [33]), 62.5 mg/kg/day.

Take `Cc1cc(C)n(CO)n1` [(3,5-Dimethyl-1H-pyrazol-1-yl)methanol]: the LEL in the series on rat [9] (setting [26]) came out at 400 mg/kg/day; in the series with rat [9] (setting [35]) it was 100 mg/kg/day; with rat [10], 50 mg/kg/day; with rat [11] (setting [36]) it was 150 mg/kg/day; with rat [11] (setting [37]) it was 150 mg/kg/day. Also, the LOAEL was 400 mg/kg/day in the series with rat [9] (setting [26]); 100 mg/kg/day with rat [9] (setting [34]); 50 mg/kg/day in the series with rat [10]; 150 mg/kg/day in the series with rat [11] (setting [36]); 150 mg/kg/day in the series on rat [11] (group: maternal, systemic / in life observation / body weight / body weight + systemic / in life observation / food consumption / food consumption). Moreover, the NEL in the series on rat [9] (setting [26]) is 200 mg/kg/day; in the series on rat [9] (setting [35]), < 100 mg/kg/day; in the series on rat [10] it was < 50 mg/kg/day; with rat [11] (setting [36]), 75 mg/kg/day; in the series with rat [11] (setting [37]), 75 mg/kg/day. For the same compound, the NOAEL in the series on rat [9] (setting [26]) was 200 mg/kg/day; in the series with rat [9] (setting [34]), < 100 mg/kg/day; in the series with rat [10], < 50 mg/kg/day; in the series with rat [11] (setting [36]), 75 mg/kg/day; in the series on rat [11] (setting [37]), 75 mg/kg/day.

With `C=C(C)[C@H]1CC=C(C)CC1` [D-Limonene], the LEL in the series on mouse [12] came to 1000 mg/kg/day; in the series on rat [13] (setting [39]), 150 mg/kg/day; with mouse [14] (setting [40]), 500 mg/kg/day; in the series on rat [15] (setting [42]), 75 mg/kg/day. The LOAEL in the series on mouse [12] was > 2000 mg/kg/day; with rat [13] (setting [38]) it was > 2400 mg/kg/day; with mouse [14] (setting [32]), 1000 mg/kg/day; with rat [15] (setting [41]) it was 75 mg/kg/day. The NEL is 500 mg/kg/day in the series with mouse [12], < 150 mg/kg/day in the series with rat [13] (setting [39]), 250 mg/kg/day in the series on mouse [14] (setting [40]) and < 75 mg/kg/day in the series with rat [15] (setting [42]). For the same compound, the NOAEL in the series on mouse [12] is ≥ 2000 mg/kg/day; in the series with rat [13] (setting [38]), ≥ 2400 mg/kg/day; in the series with mouse [14] (setting [32]), 500 mg/kg/day; with rat [15] (setting [41]), < 75 mg/kg/day.

`OC[C@@H](O)[C@@H](O)[C@H](O)[C@H](O)CO` [D-Mannitol]: the LEL is 3750 mg/kg/day in the series on mouse [16], 2500 mg/kg/day with rat [17], 1250 mg/kg/day with rat [18] (setting [43]) and > 7500 mg/kg/day in the series on mouse [19]. For the same compound, the LOAEL with mouse [16] was 3750 mg/kg/day; with rat [17], 2500 mg/kg/day; in the series on rat [18] (systemic / in life observation / body weight / body weight gain) it was 2500 mg/kg/day; in the series on mouse [19], > 7500 mg/kg/day. In addition, the NEL is < 3750 mg/kg/day with mouse [16], 1250 mg/kg/day with rat [17], < 1250 mg/kg/day in the series on rat [18] (setting [43]) and ≥ 7500 mg/kg/day with mouse [19]. The NOAEL in the series with mouse [16] was < 3750 mg/kg/day; in the series on rat [17] it was 1250 mg/kg/day; with rat [18] (setting [43]), 1250 mg/kg/day; in the series on mouse [19] it was ≥ 7500 mg/kg/day.

As to `CCN(CC)C(=S)SSC(=S)N(CC)CC` [Disulfiram], in the series on mouse [20], the LEL worked out at 15 mg/kg/day, the lowest-observed-adverse-effect level (LOAEL) was 15 mg/kg/day, the NEL was < 15 mg/kg/day and the NOAEL was < 15 mg/kg/day. Moreover, in the series with rat [21], the LEL turned out to be 15 mg/kg/day, the LOAEL is > 30 mg/kg/day, the NEL is < 15 mg/kg/day and the no observed adverse effect level (NOAEL) is ≥ 30 mg/kg/day. In the series with mouse [22], the LEL worked out at 150 mg/kg/day, the LOAEL came out at 150 mg/kg/day, the NEL was 75 mg/kg/day and the NOAEL was determined as 75 mg/kg/day. In the series with rat [23], the LEL was found to be 75 mg/kg/day, the LOAEL turned out to be 75 mg/kg/day, the NEL was < 75 mg/kg/day and the NOAEL is < 75 mg/kg/day.
